Results reported in patent publication US8921546B2, “Imidazolothiazole compounds for the treatment of disease” (Ambit Biosciences Corporation, priority 2006, dated 2014).
Structures can show the parent of a compound that is named as a salt. Where two headings read alike, the source gives them in different places.

Legend:
KIT = molecular target: T1, KIT (Homo sapiens, UniProt P10721); test: Binding constant (Kd) measurement, phage-displayed kinase competition binding assay, KIT
T1 construct: made in house
Description: (§1) Binding Constant (Kd) Measurements for Small-Molecule-Kinase Interactions
(§2) By testing across a large class of protein kinases, specificity of the kinase inhibitors provided herein is also determined. The components of the assays include various human kinases expressed as fusions to T7 bacteriophage particles and immobilized ligands that bind to the ATP site of the kinases. […] If the test compound binds the kinase, it competes with the immobilized ligand and prevents binding to the solid support. […] The results are read out by quantitating the amount of fusion protein bound to the solid support, which is accomplished by either traditional phage plaque assays or by quantitative PCR (qPCR) using the phage genome as a template.

MV4-11 cells = test: Cellular proliferation assay (MTS), MV4-11; assay type: cell-based; conditions: Homo sapiens
Text: Cellular Proliferation Assay
Cancer cell viability and proliferation can be evaluated using a tetrazolium salt reduction cell-based assay. In viable cells, this colorimetric assay can measure mitochondrial reduction of a tetrazolium component (MTS) into an […] formazan product.
This cell line was used to determine the ability of the compounds provided herein to inhibit Flt3 in intact cells. The RS4-11 cell line, which expresses the wild-type (WT) receptor, is also used as a control to verify the test compound's ability to inhibit the FLT3 receptor containing the ITD mutation.
MV4-11 cells were plated at 10,000 cells per well in DMEM medium with 0.5% serum. RS4-11 cells were plated at 20,000 cells per well in RPMI with 0.5% serum. […] An aliquot from each well of the compound plate was transferred to the plated cells and then incubated @ 37° C. in 5% CO2 (for 3 days for the MV4-11 cells, 2 days for the RS4-11 cells).
MTS tetrazolium compound (Owen's reagent) was thawed in a H2O bath. 20 μl of MTS tetrazolium was added to each well of optical plate and the cells were incubated @ 37° C. in 5% CO2 for 2 hours.

CSF1R = molecular target: T2, CSF1R (Homo sapiens, UniProt P07333); test: Binding constant (Kd) measurement, phage-displayed kinase competition binding assay, CSF1R
T2 construct: made in house
Description: as §1, §2

FLT3 = molecular target: T3, FLT3 (Homo sapiens, UniProt P36888); test: Binding constant (Kd) measurement, phage-displayed kinase competition binding assay, FLT3
T3 construct: made in house
T3 sequence (P36888 27-993): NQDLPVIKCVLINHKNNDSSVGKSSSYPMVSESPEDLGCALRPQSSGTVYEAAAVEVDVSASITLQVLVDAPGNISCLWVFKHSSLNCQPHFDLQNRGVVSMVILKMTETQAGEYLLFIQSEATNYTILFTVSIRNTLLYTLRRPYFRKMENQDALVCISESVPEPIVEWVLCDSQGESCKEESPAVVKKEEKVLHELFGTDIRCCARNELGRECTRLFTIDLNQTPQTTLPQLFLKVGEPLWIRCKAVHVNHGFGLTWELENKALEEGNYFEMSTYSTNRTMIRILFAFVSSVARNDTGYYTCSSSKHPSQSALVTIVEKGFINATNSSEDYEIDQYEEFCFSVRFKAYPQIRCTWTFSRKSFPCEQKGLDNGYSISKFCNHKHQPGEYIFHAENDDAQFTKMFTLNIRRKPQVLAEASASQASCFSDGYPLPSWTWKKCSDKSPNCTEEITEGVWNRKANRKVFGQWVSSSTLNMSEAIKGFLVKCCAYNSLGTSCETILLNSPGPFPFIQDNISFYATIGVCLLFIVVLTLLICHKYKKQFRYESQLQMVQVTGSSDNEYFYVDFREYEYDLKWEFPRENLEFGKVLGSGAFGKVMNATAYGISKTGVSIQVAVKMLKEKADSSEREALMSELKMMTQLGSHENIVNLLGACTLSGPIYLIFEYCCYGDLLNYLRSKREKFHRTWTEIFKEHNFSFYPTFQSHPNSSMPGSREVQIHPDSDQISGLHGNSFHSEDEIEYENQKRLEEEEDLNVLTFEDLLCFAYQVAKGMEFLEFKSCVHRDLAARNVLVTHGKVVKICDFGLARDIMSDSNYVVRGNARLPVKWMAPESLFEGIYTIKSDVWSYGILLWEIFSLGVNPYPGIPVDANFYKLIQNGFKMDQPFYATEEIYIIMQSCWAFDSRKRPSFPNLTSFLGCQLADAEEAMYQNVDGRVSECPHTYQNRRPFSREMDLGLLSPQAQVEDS
Description: as §1, §2

[1] = MV4-11 cells, 72 hour incubation, MTS, read-out: Cellular Assay MV-proliferation IC50
[2] = read-out: Binding Assay FLT3 Kd

T2 sequence (P07333 20-972): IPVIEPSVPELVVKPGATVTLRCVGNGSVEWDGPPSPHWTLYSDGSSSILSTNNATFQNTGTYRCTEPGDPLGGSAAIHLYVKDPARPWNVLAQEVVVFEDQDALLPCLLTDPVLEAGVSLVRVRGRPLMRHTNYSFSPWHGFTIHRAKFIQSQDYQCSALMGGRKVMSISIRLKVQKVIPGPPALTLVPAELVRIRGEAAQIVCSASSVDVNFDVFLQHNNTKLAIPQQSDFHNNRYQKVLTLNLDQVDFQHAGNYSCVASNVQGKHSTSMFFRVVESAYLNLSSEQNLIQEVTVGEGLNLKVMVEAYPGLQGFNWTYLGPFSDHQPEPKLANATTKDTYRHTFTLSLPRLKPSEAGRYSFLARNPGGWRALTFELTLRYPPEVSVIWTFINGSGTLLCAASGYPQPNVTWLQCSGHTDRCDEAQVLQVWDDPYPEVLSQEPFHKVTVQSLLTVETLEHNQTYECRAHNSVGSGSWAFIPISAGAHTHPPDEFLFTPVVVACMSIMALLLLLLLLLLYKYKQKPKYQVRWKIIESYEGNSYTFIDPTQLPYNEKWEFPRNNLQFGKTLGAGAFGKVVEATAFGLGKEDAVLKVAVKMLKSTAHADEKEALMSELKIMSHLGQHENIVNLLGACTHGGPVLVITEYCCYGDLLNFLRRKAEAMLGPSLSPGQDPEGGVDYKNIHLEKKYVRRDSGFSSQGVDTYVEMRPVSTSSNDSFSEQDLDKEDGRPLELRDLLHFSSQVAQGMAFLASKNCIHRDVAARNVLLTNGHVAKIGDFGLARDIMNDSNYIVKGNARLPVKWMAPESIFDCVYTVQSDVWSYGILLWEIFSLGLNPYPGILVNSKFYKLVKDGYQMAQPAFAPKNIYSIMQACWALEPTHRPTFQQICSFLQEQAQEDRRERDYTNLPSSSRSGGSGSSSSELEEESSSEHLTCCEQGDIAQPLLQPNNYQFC
T1 sequence (P10721 26-976): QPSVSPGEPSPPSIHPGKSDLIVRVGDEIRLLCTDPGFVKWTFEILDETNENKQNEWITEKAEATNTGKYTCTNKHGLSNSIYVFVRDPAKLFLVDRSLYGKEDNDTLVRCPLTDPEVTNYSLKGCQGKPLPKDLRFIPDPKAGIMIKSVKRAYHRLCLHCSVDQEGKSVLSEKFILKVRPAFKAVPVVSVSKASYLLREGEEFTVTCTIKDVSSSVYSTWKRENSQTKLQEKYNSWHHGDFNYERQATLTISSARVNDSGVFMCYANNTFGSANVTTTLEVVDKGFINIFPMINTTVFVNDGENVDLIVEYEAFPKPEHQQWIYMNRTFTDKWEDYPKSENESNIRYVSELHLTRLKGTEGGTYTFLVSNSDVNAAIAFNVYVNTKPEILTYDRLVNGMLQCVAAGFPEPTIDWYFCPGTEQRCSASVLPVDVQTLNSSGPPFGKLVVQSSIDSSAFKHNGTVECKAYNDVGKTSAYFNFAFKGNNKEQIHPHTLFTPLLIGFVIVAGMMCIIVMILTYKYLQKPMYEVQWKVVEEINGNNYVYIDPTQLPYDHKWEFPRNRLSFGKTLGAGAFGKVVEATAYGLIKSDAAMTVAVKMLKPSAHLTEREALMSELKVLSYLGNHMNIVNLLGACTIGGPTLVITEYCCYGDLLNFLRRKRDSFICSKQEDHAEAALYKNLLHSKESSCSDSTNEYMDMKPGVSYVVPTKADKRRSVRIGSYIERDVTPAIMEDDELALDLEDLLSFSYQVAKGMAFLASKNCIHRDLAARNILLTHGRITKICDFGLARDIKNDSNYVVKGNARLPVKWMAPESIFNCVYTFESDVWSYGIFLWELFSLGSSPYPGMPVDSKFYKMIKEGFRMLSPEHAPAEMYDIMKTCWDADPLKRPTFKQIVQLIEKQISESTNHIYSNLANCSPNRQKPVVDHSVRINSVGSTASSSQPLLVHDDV

Compound | Kd (KIT) | IC50 (MV4-11 cells; [1]) | Kd (CSF1R) | Kd (FLT3) | IC50 (MV4-11 cells; MV4-11, 72 h, read-out: Cellular Assay MV-proliferation IC50 (nM)) | Kd (FLT3; [2])
CCN(CC)CCNC(=O)CCc1ccc2c(c1)sc1nc(-c3ccc(NC(=O)Nc4cc(C(C)(C)C)on4)cc3)cn12 [Compound C12, 3-(2-{4-[3-(5-tert-butyl-isoxazol-3-yl)-ureido]-phenyl}-benzo[d]imidazo[2,1-b]thiazol-7-yl)-N-(2-diethylamino-ethyl)-propionamide hydrochloride] | < 10 nM | < 10 nM | 10 to 100 nM | < 10 nM | – | –
CC(C)(C)c1cc(NC(=O)Nc2ccc(-c3cn4c(n3)sc3cc(CC(=O)NCCN5CCOCC5)ccc34)cc2)no1 [Compound C13, 2-(2-{4-[3-(5-tert-butyl-isoxazol-3-yl)-ureido]-phenyl}-benzo[d]imidazo[2,1-b]thiazol-7-yl)-N-(2-morpholin-4-yl-ethyl)-acetamide hydrochloride] | < 10 nM | < 10 nM | 10 to 100 nM | < 10 nM | – | –
CC(C)(C)c1cc(NC(=O)Nc2ccc(-c3cn4c(n3)sc3cc(CC(=O)NCCN5CCCCC5)ccc34)cc2)no1 [Compound C14, 2-(2-{4-[3-(5-tert-butyl-isoxazol-3-yl)-ureido]-phenyl}-benzo[d]imidazo[2,1-b]thiazol-7-yl)-N-(2-piperidin-1-yl-ethyl)-acetamide hydrochloride] | < 10 nM | < 10 nM | 10 to 100 nM | < 10 nM | – | –
CC(C)(C)c1cc(NC(=O)Nc2ccc(-c3cn4c(n3)sc3cc(CC(=O)N5CCOCC5)ccc34)cc2)no1 [Compound C18, 1-(5-tert-butyl-isoxazol-3-yl)-3-{4-[7-(2-morpholin-4-yl-2-oxo-ethyl)-imidazo[2,1-b][1,3]benzothiazol-2yl]-phenyl}-urea] | < 10 nM | < 10 nM | 10 to 100 nM | < 10 nM | – | –
CC(C)(C)c1cc(NC(=O)Nc2ccc(-c3cn4c(n3)sc3cc(C(=O)NCCN5CCCC5)ccc34)cc2)no1 [Compound C21, 2-{4-[3-(5-tert-butyl-isoxazol-3-yl)-ureido]-phenyl}-imidazo[2,1-b][1,3]benzothiazole-7-carboxylic Acid (2-Pyrrolidin-1-yl-ethyl)-amide hydrochloride] | < 10 nM | < 10 nM | 10 to 100 nM | < 10 nM | – | –
CCN(CC)CCNC(=O)c1ccc2c(c1)sc1nc(-c3ccc(NC(=O)Nc4cc(C(C)(C)C)on4)cc3)cn12 [Compound C22, 2-{4-[3-(5-tert-butyl-isoxazol-3-yl)-ureido]-phenyl}-imidazo[2,1-b][1,3]benzothiazole-7-carboxylic acid (2-diethylamino-ethyl)-amide hydrochloride] | < 10 nM | < 10 nM | 10 to 100 nM | < 10 nM | – | –
CCN1CCN(C(=O)c2ccc3c(c2)sc2nc(-c4ccc(NC(=O)Nc5cc(C(C)(C)C)on5)cc4)cn23)CC1 [Compound C23, 1-(5-tert-butyl-isoxazol-3-yl)-3-{4-[7-(4-ethyl-piperazine-1-carbonyl)-imidazo[2,1-b][1,3]benzothiazol-2-yl]-phenyl}-urea hydrochloride] | < 10 nM | – | 10 to 100 nM | – | < 10 nM | < 10 nM
CC(C)(C)c1cc(NC(=O)Nc2ccc(-c3cn4c(n3)sc3cc(C(=O)N5CCNCC5)ccc34)cc2)no1 [Compound C24, 1-(5-tert-butyl-isoxazol-3-yl)-3-{4-[7-(piperazine-1-carbonyl)-imidazo[2,1-b][1,3]benzothiazol-2-yl]-phenyl}-urea hydrochloride] | < 10 nM | < 10 nM | 10 to 100 nM | < 10 nM | – | –
CN1CCN(C(=O)c2ccc3c(c2)sc2nc(-c4ccc(NC(=O)Nc5cc(C(C)(C)C)on5)cc4)cn23)CC1 [Compound C25, 1-(5-tert-butyl-isoxazol-3-yl)-3-{4-[7-(4-methyl-piperazine-1-carbonyl)-imidazo[2,1-b][1,3]benzothiazol-2-yl]-phenyl}-urea hydrochloride] | < 10 nM | < 10 nM | 10 to 100 nM | < 10 nM | – | –
CCOC(=O)c1ccc2c(c1)sc1nc(-c3ccc(NC(=O)Nc4cc(C(C)(C)C)on4)cc3)cn12 [Compound C26, 2-{4-[3-(5-tert-Butyl-isoxazol-3-yl)-ureido]-phenyl}-imidazo[2,1-b][1,3]benzothiazole-7-carboxylic acid ethyl ester] | 10 to 100 nM | < 10 nM | 100 to 1000 nM | < 10 nM | – | –
CC(C)(C)c1cc(NC(=O)Nc2ccc(-c3cn4c(n3)sc3cc(C(=O)O)ccc34)cc2)no1 [Compound C27, Sodium 2-{4-[3-(5-tert-butyl-isoxazol-3-yl)-ureido]-phenyl}-benzo[d]imidazo[2,1-b]thiazole-7-carboxylate] | < 10 nM | < 10 nM | 10 to 100 nM | – | – | < 10 nM
CN(C(=O)Nc1cc(C(C)(C)C)on1)c1ccc(-c2cn3c(n2)sc2cc(CCCN4CCOCC4)ccc23)cc1 [Compound D2, 3-(5-tert-Butyl-isoxazol-3-yl)-1-methyl-1 {4-[7-(3-morpholin-4-yl-propyl)-benzo[d]imidazo[2,1-b]thiazol-2-yl]-phenyl}-urea] | < 10 nM | 10 to 100 nM | 10 to 100 nM | – | – | 10 to 100 nM
CC(C)(C)c1cc(NC(=O)Nc2ccc(-c3cn4c(n3)sc3cc(CCCN5CCOCC5)ccc34)cc2)no1 [Compound D3, 1-(5-tert-Butyl-isoxazol-3-yl)-3-{4-[7-(3-morpholin-4-yl-propyl)-benzo[d]imidazo[2,1-b]thiazol-2-yl]-phenyl}-urea] | < 10 nM | < 10 nM | 10 to 100 nM | – | – | < 10 nM
CC(C)(C)c1cc(NC(=O)Nc2ccc(-c3cn4c(n3)sc3cc(CCCN5CCCCC5)ccc34)cc2)no1 [Compound D4, N-(5-tert-Butyl-isoxazol-3-yl)-N′-{4-[7-(3-piperidin-1-yl-propyl)imidazo[2,1-b][1,3]benzothiazol-2-yl]phenyl}urea hydrochloride] | 10 to 100 nM | < 10 nM | 10 to 100 nM | < 10 nM | – | –
CC(C)(C)c1cc(NC(=O)Nc2ccc(-c3cn4c(n3)sc3cc(CCN5CCOCC5)ccc34)cc2)no1 [Compound D5, 1-(5-tert-Butyl-isoxazol-3-yl)-3-{4-[7-(2-morpholin-4-yl-ethyl)-imidazo[2,1-b][1,3]benzothiazol-2-yl]-phenyl}-urea hydrochloride] | < 10 nM | < 10 nM | < 10 nM | < 10 nM | – | –
CC(C)(C)c1cc(NC(=O)Nc2ccc(-c3cn4c(n3)sc3cc(CCN5CCCCC5)ccc34)cc2)no1 [Compound D6, 1-(5-tert-Butyl-isoxazol-3-yl)-3-{4-[7-(2-piperidin-1-yl-ethyl)-imidazo[2,1-b][1,3]benzothiazol-2-yl]-phenyl}urea hydrochloride] | < 10 nM | < 10 nM | < 10 nM | < 10 nM | – | –
CCN1CCN(CCc2ccc3c(c2)sc2nc(-c4ccc(NC(=O)Nc5cc(C(C)(C)C)on5)cc4)cn23)CC1 [Compound D7, 1-(5-tert-Butyl-isoxazol-3-yl)-3-(4-{7-[2-(4-ethyl-piperazin-1-yl)-ethyl]-imidazo[2,1-b][1,3]benzothiazol-2-yl}-phenyl)-urea hydrochloride] | < 10 nM | < 10 nM | < 10 nM | < 10 nM | – | –
